Reference: PMC7375689 (Leukemia & lymphoma, 2020)
Like-named read-outs stand apart in the source and are kept apart here.

Columns and labels:
[1] = single agent panobinostat; cited from earlier work
[2] = patients with relapsed multiple myeloma; cited from earlier work
[3] = single agent vorinostat; cited from earlier work
[4] = Plasma pharmacokinetics of AR-42 in AML patients; assay type: in vivo, human; details: for Tmax: median (SD)
[5] = Toxicity and dose limiting toxicity; assay type: in vivo, human; details: for dose limiting toxicities (DLTs): cycle 1
AML = assay: Clinical response; assay type: in vivo, human; details: of 13 patients enrolled, AR-42 followed by decitabine; responses all in DL3
miR-29b [6] = test system: miR-29b
cancer cells = details: cited from earlier work
AML cell lines = details: cited from earlier work
miR-29b [7] = details: cited from earlier work
[8] = 20 mg (day 1, 3, 5), Day 1, cycle 1, plasma, geometric mean (SD)
[9] = 20 mg (day 1, 3, 5), Day 5, cycle 1, plasma, geometric mean (SD)
[10] = 40 mg (day 1, 3, 4, 5), Day 1, cycle 1, plasma, geometric mean (SD)
[11] = 40 mg (day 1, 3, 4, 5), Day 5, cycle 1, plasma, geometric mean (SD)
[12] = 40 mg (day 1, 3, 5), Day 1, cycle 1, plasma, geometric mean (SD)
[13] = 40 mg (day 1, 3, 5), Day 5, cycle 1, plasma, geometric mean (SD)
[14] = AR-42 followed by decitabine, all dose levels, 13 AML patients

## Cc1[nH]c2ccccc2c1CCNCc1ccc(/C=C/C(=O)NO)cc1 [panobinostat]
[1]
  patients who experienced fatigue: 47.4%

## Cn1cc(CNCC2CCN(c3ncc(C(=O)NO)cn3)CC2)c2ccccc21 [quisinostat]
[2]
  cardiac events: grade 3 and 4 cardiac events

## O=C(CCCCCCC(=O)Nc1ccccc1)NO [vorinostat]
[3]
  patients who experienced fatigue: 52%

## AR-42
[4]; [8]
  AUC0–4: 1.59 (2.13) μM h
  AUC0–∞: 1.77 (2.34) μM h
  Cl/F (apparent oral clearance): 36.11 (114.88) L/h
  T1/2: 7.36 (0.42) h
  Vz/F (apparent volume of distribution): 381.33 (1238.57) L
[4]; 20 mg (day 1, 3, 5), Day 1, cycle 1, plasma
  Tmax: 2.00 (1.32) h
[4]; [9]
  AUC0–4: 4.19 (0.54) μM h
  AUC0–∞: 4.63 (0.71) μM h
  Cl/F (apparent oral clearance): 13.84 (2.18) L/h
  Cmax: 350 nM
  T1/2: 6.91 (1.11) h
  Vz/F (apparent volume of distribution): 137.94 (14.39) L
[4]; 20 mg (day 1, 3, 5), Day 5, cycle 1, plasma
  Tmax: 2.00 (1.32) h
[4]; [10]
  AUC0–4: 11.33 (3.54) μM h
  AUC0–∞: 12.22 (4.24) μM h
  Cl/F (apparent oral clearance): 10.48 (2.98) L/h
  Cmax: 1010 nM
  T1/2: 7.63 (1.14) h
  Vz/F (apparent volume of distribution): 120.53 (35.87) L
[4]; 40 mg (day 1, 3, 4, 5), Day 1, cycle 1, plasma
  Tmax: 2.00 (2.36) h
[4]; [11]
  AUC0–4: 11.13 (3.36) μM h
  AUC0–∞: 14.42 (7.91) μM h
  Cl/F (apparent oral clearance): 8.88 (3.23) L/h
  Cmax: 960 nM
  T1/2: 9.98 (6.79) h
  Vz/F (apparent volume of distribution): 127.81 (54.36) L
[4]; 40 mg (day 1, 3, 4, 5), Day 5, cycle 1, plasma
  Tmax: 4.00 (2.60) h
[4]; [12]
  AUC0–4: 7.20 (1.06) μM h
  AUC0–∞: 7.90 (1.10) μM h
  Cl/F (apparent oral clearance): 16.22 (2.15) L/h
  Cmax: 710 nM
  T1/2: 6.63 (0.29) h
  Vz/F (apparent volume of distribution): 155.67 (27.03) L
[4]; 40 mg (day 1, 3, 5), Day 1, cycle 1, plasma
  Tmax: 2.00 (1.15) h
[4]; [13]
  AUC0–4: 6.94 (0.64) μM h
  AUC0–∞: 7.71 (1.10) μM h
  Cl/F (apparent oral clearance): 16.61 (2.22) L/h
  Cmax: 860 nM
  T1/2: 6.93 (1.26) h
  Vz/F (apparent volume of distribution): 166.11 (9.73) L
[4]; 40 mg (day 1, 3, 5), Day 5, cycle 1, plasma
  Tmax: 1.50 (0.29) h
[4]; read-out: Cmax values, DL1, days 1 and 5
  Cmax: 150 to 350 nM
[4]; read-out: Cmax values, DL2, days 1 and 5
  Cmax: 710 to 860 nM
[4]; read-out: Cmax values, DL3, days 1 and 5
  Cmax: 960 to 1010 nM
[5]; AR-42 followed by decitabine, 13 AML patients
  patients with worsening hypertension: 4
[5]; [14]
  Number of Patients with grade ≥ 3 in cycles 1 and 2: Alanine aminotransferase increased: 1
  Number of Patients with grade ≥ 3 in cycles 1 and 2: Alkalosis: 1
  Number of Patients with grade ≥ 3 in cycles 1 and 2: Aspartate aminotransferase increased: 2
  Number of Patients with grade ≥ 3 in cycles 1 and 2: Blood bilirubin increased: 1
  Number of Patients with grade ≥ 3 in cycles 1 and 2: Cardiac troponin increased: 1
  Number of Patients with grade ≥ 3 in cycles 1 and 2: Catheter-related infection: 2
  Number of Patients with grade ≥ 3 in cycles 1 and 2: Fall: 1
  Number of Patients with grade ≥ 3 in cycles 1 and 2: Febrile neutropenia: 9
  Number of Patients with grade ≥ 3 in cycles 1 and 2: Heart failure: 1
  Number of Patients with grade ≥ 3 in cycles 1 and 2: Hyperglycemia: 3
  Number of Patients with grade ≥ 3 in cycles 1 and 2: Hypertension: 4
  Number of Patients with grade ≥ 3 in cycles 1 and 2: Hyperuricemia: 1
  Number of Patients with grade ≥ 3 in cycles 1 and 2: Hypoalbuminemia: 1
  Number of Patients with grade ≥ 3 in cycles 1 and 2: Hypokalemia: 3
  Number of Patients with grade ≥ 3 in cycles 1 and 2: Hyponatremia: 5
  Number of Patients with grade ≥ 3 in cycles 1 and 2: Hypophosphatemia: 2
  Number of Patients with grade ≥ 3 in cycles 1 and 2: Hypotension: 2
  Number of Patients with grade ≥ 3 in cycles 1 and 2: Hypoxia: 6
  Number of Patients with grade ≥ 3 in cycles 1 and 2: Lung infection: 5
  Number of Patients with grade ≥ 3 in cycles 1 and 2: Rash maculo-papular: 1
  Number of Patients with grade ≥ 3 in cycles 1 and 2: Respiratory failure: 1
  Number of Patients with grade ≥ 3 in cycles 1 and 2: Sepsis: 3
  Number of Patients with grade ≥ 3 in cycles 1 and 2: Sinus tachycardia: 1
  Number of Patients with grade ≥ 3 in cycles 1 and 2: Syncope: 1
[5]; DL1: AR-42 20 mg daily days 1, 3, 5, then decitabine, 3 patients
  dose limiting toxicities (DLTs): no DLTs
[5]; DL2: AR-42 40 mg daily days 1, 3, 5, then decitabine, 3 patients
  dose limiting toxicities (DLTs): no DLTs
[5]; DL3: AR-42 40 mg daily days 1, 3, 4, 5, then decitabine
  dose limiting toxicities (DLTs): One DLT of polymicrobial sepsis and multi-organ failure
[5]; of the six patients with neutropenia in cycle 1
  patients who also experienced a grade 3 or 4 infection: 4
[5]; patients treated with AR-42
  cardiac toxicities: minimal cardiac toxicities
AML
  number of patients who achieved a CRi: 2
miR-29b [6]; DL1: AR-42 20 mg days 1, 3, 5, day 5 of cycle 1 over baseline
  increase of at least 100% in miR-29b expression: not observed
miR-29b [6]; DL2: AR-42 40 mg days 1, 3, 5, day 5 of cycle 1 over baseline
  increase in miR-29b expression of at least 100%: not observed
miR-29b [6]; DL3: AR-42 40 mg days 1, 3, 4, 5, day 5 of cycle 1 over baseline
  increase in miR-29b expression: not observed
miR-29b [6]; all dose levels, current schedule
  doubling in either the mature or primary miR at day 5 prior to decitabine administration: did not observe a doubling
miR-29b [6]; human, in vivo
  correlation between miR-29b ΔΔCT values and Cmax: weak correlation
Cancer cells
  IC50: submicromolar
AML cell lines; AML cell lines
  apoptosis: dose dependent apoptosis
  effect on cell cycle: cell cycle arrest at both S and G2/M phases
AML cell lines; sequential administration of AR-42 followed by decitabine, compared to either drug alone
  anti-leukemic activity: stronger anti-leukemic activity
miR-29b [7]; AML cells, 1 μM AR-42, after 24 h
  miR-29b expression: miR-29b induction
miR-29b [7]; Kasumi-1 AML cells, in vitro
  miR-29b expression: upregulated
miR-29b [7]; in vitro
  miR-29b transcription: increase
